In patent publication US20240075093A1, “COMPOSITIONS AND METHODS OF TREATING A PI3K MEDIATED DISEASE” (VIRGINIA TECH INTELLECTUAL PROPERTIES, INC., priority 2020, published 2024):
Where no end group is shown, it is not given here.

Columns and labels:
[1] = tested on: PI3K/AKT signaling in SF295 cells; assay: immunoblotting of PI3K/AKT signaling in SF295 cells; type: cell-based; settings: for AKT activity: 100 μM peptide
Procedure: SF295 cells were treated with 200 μM Ante-Selectide-18 for 4 days with a replenishment of fresh peptide every day. The vehicle was used as the control. PI3K/AKT signaling was analyzed using immunoblotting. Three signaling pathways (GSK3b, RAC1/CDC42, and MTOR) are shown. ACTB is the loading control.
Invasion molecules RAC1/CDC42 and MMPs are shown. Images were quantified using Image J. 0 h time point is set as 1.0. […] Apoptosis molecules FOXO3, BIM, and c-CASP3 are shown. (FIG. 9C) Invasion/survival signaling downstream of p110p.
(§1) (FIG. 12A) p110βC2in. CPP: cell-penetrating peptide. Simulated p110βC2in (rainbow as represented in greyscale) is shown. (FIG. 12B) FITC-p110βC2in in LN229/GSCs was imaged using a fluorescence microscope. Upper: FITC; lower: bright view. (FIG. 12C) PI3K/AKT activity affected by 100 μM p110βC2in (+) or C2Scramble-1 (−). (FIG. 12D) MTS Cell viability assay. Cells were treated with 50 μM peptides for 4 days. Student t test was used to determine P values.
In FIG. 3 Applicant tested whether Ante-Selectide-18 affects PI3K signaling in GBM cells. […] In contrast, another PI3K/AKT downstream target MTOR was not inhibited by this peptide.

p110γ = p110γ (Homo sapiens, UniProt P48736); assay: PI3K subunit activity ELISA; type: biochemical; settings: 100 nM
Sequence of p110γ (P48736 whole entry): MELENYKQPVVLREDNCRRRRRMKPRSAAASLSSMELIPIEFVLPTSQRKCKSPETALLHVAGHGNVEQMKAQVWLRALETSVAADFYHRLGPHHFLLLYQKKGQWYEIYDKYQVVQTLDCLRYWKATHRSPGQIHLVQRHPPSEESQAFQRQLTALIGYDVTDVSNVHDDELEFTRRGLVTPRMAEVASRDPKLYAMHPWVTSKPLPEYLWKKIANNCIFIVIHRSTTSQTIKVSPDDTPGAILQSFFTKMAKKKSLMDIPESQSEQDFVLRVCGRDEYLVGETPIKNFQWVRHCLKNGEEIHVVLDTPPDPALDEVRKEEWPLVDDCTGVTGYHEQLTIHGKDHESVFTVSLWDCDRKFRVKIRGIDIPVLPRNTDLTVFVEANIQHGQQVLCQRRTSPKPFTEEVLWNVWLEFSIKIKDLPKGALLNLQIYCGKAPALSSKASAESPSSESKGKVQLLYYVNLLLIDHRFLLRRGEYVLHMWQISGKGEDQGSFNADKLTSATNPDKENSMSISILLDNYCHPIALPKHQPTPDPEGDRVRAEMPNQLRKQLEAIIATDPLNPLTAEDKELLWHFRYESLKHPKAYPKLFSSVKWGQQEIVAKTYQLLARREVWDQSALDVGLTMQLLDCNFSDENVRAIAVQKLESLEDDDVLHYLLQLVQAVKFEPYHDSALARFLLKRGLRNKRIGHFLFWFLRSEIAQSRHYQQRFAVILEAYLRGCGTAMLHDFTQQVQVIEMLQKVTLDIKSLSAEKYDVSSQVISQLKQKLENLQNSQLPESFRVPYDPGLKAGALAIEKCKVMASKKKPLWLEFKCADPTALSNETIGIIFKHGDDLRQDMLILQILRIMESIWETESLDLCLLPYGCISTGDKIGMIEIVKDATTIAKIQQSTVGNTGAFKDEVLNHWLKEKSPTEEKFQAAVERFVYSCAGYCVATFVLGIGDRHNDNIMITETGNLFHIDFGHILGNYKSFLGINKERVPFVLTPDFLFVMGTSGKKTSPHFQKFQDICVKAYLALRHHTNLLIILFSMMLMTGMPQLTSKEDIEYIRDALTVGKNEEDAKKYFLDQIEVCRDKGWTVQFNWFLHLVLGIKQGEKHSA
Procedure: (§2) Relative activity is the ratio of respective treated groups to their non-treated controls.
(§3) Applicant also included a control scramble peptide containing the antennapedia sequence followed by the amino acid sequence of Ante-Selectide-18 randomly scrambled. […] Applicant reports that this drug is not effective at inhibiting the kinase activity of p110b or other PI3K subunits at 100 nM, showing the promise of the Ante-Selectide-18 peptide as a potent selective p110b inhibitor at a low dose.

p110c = p110c (Homo sapiens, UniProt P42336); assay: PI3K subunit activity ELISA; type: biochemical; settings: 100 nM
Sequence of p110c (P42336 whole entry): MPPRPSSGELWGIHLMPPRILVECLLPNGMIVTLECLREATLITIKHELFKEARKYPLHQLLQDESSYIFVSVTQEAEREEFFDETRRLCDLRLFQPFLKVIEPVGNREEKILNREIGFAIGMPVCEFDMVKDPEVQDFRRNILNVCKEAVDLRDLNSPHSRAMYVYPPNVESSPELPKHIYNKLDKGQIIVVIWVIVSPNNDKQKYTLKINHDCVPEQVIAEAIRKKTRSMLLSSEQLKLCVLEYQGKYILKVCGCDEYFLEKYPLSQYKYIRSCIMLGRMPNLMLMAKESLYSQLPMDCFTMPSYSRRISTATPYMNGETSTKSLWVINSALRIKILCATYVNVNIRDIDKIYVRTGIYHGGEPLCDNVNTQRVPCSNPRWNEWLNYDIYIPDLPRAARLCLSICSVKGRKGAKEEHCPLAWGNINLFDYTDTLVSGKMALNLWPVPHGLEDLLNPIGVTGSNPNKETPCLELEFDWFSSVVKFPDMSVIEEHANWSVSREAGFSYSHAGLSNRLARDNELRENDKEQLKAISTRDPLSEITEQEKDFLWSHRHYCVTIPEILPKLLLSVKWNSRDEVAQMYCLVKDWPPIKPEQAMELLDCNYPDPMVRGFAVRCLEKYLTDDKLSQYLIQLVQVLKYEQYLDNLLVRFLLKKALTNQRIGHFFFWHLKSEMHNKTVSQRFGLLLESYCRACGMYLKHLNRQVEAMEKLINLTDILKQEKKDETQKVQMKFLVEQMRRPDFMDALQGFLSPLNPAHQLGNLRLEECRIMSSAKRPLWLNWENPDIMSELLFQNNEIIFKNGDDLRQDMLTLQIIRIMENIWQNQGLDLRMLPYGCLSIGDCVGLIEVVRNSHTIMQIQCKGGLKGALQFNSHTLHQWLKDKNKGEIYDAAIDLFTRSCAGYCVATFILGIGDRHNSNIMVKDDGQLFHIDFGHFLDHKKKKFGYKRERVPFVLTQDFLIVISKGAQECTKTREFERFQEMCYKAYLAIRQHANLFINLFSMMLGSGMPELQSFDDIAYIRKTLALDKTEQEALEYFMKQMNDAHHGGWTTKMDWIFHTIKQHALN
Procedure: as §2, §3

p110δ = p110δ (Homo sapiens, UniProt O00329); assay: PI3K subunit activity ELISA; type: biochemical; settings: 100 nM
Sequence of p110δ (O00329 whole entry): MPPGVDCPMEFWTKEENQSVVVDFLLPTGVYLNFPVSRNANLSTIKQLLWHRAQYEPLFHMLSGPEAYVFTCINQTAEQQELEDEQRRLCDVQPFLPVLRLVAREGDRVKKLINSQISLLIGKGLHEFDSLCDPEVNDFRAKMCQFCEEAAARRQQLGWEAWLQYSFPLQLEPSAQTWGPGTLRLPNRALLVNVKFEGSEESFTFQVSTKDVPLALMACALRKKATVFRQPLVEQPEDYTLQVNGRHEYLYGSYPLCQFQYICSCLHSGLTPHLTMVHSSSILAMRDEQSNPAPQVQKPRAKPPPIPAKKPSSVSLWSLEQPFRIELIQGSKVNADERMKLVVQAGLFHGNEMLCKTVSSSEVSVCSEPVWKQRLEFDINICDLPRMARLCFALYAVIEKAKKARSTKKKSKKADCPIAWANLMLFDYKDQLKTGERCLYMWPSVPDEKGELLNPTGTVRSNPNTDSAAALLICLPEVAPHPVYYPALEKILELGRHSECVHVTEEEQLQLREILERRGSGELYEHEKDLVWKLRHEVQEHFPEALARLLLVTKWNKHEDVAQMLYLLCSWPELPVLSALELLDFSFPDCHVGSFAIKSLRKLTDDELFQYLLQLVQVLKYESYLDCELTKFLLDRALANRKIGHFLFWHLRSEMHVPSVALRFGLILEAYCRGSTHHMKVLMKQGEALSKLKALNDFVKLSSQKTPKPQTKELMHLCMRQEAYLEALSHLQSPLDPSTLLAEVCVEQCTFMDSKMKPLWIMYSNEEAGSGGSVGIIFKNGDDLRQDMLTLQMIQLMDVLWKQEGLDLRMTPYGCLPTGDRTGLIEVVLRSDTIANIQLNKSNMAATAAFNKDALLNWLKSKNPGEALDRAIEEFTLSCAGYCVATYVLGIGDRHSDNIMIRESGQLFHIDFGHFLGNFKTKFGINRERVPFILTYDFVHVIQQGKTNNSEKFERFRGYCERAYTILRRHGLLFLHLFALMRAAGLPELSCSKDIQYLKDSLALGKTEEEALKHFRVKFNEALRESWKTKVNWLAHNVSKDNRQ
Sequence of p110δ (P27986 whole entry partner): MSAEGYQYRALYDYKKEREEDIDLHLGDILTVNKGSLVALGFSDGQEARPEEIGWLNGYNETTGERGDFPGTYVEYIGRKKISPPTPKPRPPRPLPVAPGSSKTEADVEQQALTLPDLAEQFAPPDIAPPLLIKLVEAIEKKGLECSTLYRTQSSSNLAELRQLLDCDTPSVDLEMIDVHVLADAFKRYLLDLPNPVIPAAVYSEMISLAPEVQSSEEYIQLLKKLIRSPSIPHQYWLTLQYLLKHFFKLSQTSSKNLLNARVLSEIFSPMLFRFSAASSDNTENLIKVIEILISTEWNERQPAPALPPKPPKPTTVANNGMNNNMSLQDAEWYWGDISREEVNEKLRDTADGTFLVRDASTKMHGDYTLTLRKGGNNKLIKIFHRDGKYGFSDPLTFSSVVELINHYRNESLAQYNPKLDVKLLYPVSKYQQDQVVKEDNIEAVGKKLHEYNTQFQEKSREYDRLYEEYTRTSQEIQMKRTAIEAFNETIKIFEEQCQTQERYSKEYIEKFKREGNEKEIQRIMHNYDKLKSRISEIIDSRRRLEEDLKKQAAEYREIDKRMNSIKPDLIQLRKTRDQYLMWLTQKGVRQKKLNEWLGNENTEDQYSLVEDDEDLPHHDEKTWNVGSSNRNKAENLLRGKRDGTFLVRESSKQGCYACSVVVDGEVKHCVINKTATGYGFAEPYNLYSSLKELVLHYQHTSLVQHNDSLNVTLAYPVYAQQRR
Procedure: as §2, §3

p110b = p110b (Homo sapiens, UniProt P42338); assay: p110b activity ELISA (cell-free kinase assay); type: biochemical; settings: ELISA; for activity of p110b: 100 nM, isolated protein subunit
Sequence of p110b (P42338 whole entry): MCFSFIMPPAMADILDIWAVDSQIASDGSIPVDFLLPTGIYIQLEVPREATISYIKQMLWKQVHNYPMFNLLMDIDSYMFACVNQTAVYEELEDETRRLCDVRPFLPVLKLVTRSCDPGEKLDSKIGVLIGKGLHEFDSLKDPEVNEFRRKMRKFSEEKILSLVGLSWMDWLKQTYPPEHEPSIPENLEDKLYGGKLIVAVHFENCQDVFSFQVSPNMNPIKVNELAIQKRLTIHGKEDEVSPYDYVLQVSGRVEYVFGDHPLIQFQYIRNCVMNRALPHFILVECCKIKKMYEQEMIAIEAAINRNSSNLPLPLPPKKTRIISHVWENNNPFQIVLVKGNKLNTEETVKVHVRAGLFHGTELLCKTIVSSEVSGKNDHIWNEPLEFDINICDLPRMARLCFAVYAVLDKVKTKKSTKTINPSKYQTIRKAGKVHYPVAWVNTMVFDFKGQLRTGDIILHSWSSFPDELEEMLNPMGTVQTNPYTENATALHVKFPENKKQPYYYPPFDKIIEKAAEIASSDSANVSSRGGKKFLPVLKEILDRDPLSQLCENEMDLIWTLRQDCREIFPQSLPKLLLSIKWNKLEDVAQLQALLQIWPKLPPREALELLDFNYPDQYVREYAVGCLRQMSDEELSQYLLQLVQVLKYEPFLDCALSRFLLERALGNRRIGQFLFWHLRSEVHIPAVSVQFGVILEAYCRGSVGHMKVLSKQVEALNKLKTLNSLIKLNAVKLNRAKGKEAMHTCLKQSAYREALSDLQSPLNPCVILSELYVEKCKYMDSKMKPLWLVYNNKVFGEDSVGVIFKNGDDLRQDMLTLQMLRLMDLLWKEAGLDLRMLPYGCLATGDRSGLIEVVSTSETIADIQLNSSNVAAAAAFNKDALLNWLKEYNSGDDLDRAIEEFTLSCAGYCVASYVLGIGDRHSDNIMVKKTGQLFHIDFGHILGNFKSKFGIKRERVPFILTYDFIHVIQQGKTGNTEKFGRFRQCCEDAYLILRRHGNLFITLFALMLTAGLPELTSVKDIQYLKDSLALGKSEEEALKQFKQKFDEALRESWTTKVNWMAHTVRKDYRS
From the text: The activity of the p110b PI3K catalytic subunit was monitored via ELISA upon increasing doses of Ante-Selectide-18.
as §2
(FIG. 51A) 3D of a p110β/p85α complex determined by SWISS-MODEL and Cluspro. (FIG. 51B) Protein sequences were aligned using COBALT. C2 domains (top) are show. Red bars: same residues; Grey bars: different residues; Red lines: missing residues. […] in p110β C2 (bottom) is shown and termed as 018. Docking of p110β and p85α (FIG. 51C) or p110α and p85α (FIG. 51D) was done by SWISS-MODEL, Cluspro, and Chimera. The 018 motif is labeled in magenta. Deletion of β18 motif (FIG. 51E) changed the 3D shapes of p110β/p85 (FIG. 51C). (FIG. 51F) p110β cell-free kinase assay. An enzyme-linked immunosorbent assay (ELISA) was used to measure levels of lipids PIP2/PIP3. (FIG. 51G) Effect of PI3K inhibitors on p110s using ELISA. p110β (FIG. 51H) or p110α (FIG. 51I) was docked with Selectide-18-bound p85α using Cluspro/Chimera.
as §3

tumor growth in mice = assay: GBM tumor growth in mice; type: in vivo
MDA-MB-435S cells = assay: melanoma cell viability (CellTiter Blue); type: cell-based; settings: 0-40 μM, CellTiter Blue
Procedure: (§4) (FIG. 49A) Immunoblotting of p110s and signaling molecules. 3-actin (ACTB) was used as the loading control. (FIG. 49B) Summary of genetic mutations and protein levels in melanoma cells. Information regarding hot spot mutations was retrieved from e.g., DepMap. (FIG. 49C) Cells were treated with 0-40 μM of inhibitors. Cell viability was measured using CellTiter Blue. IC50s were calculated using Graphpad.
(§5) (FIG. 52A) Cells were treated with 10 μM Selectide-18-FITC for 1 h and imaged immediately or after 96h. (FIG. 52B) Selectide-18-FITC in melanoma cells were imaged at different times. FITC was quantified using Image J and FITC intensities at different times were normalized with that at 1 h. Half-life was calculated using GraphPad. (FIG. 52C) UACC-62, MelST, or MeWo cells were treated with 50 μM of Selectide-18 for 4 days with daily repeated dosing. (FIG. 52D) MelST or melanoma cells were treated with 50 μM of Selectide-18 for 6 days with daily repeated dosing. Cell viability was measured using Cell-Titer Blue. (FIG. 52E) MelST, UACC-62, or MeWo cells were treated with Scramble or Selectide-18 at different doses. IC50s were calculated using GraphPad. (FIG. 52F) Nod scid mice bearing UACC-62 subcutaneous tumors were treated with Selectide-18 (3 mg/kg) intratumoral injection/daily) for 16 days. Tumors were measured using a caliper and tumor volumes were calculated as (length×width2))/2. Student t test or ANOVA was used to determine P values. ns: not significant; **: P<0.01; ***P<0.001.

p110β^hyper cells = assay: melanoma cell viability (CellTiter Blue); type: cell-based; settings: 0-40 μM of inhibitors; for selective inhibition of cell viability: p110β^hyper cells versus MelST
Procedure: as §4, §5

PI3K in SK-MEL-94 cells = assay: PI3K activity in melanoma cells (immunoblotting); type: cell-based; settings: 10 μM AZD6482
PI3K in SK-MEL-147 cells = assay: PI3K activity in melanoma cells (immunoblotting); type: cell-based; settings: 10 μM AZD6482
SF295 cells [2] = assay: MTS cell viability assay; type: cell-based; settings: 50 μM peptides, 4 days
Procedure: as §1
Cell viability was measured by the MTS assay. P values were determined using the student t test or one-way ANOVA. Error bars represent three independent experiments.
This scheme has been repeated in experiments presented hereafter. Cell viability was determined using the MTS viability assay. Percentages of cell viability were obtained by normalizing the MTS readings of treatment groups to that of DMSO group. (FIG. 34B) Scores of Excess Over Bliss (EOB) calculated using the Bliss Independence model. The drug combination is synergistic if EOB is more than 0%, additive if EOB equals to 0%, or antagonistic if EOB is less than 0%. […] (FIG. 34D) EOB scores of drug combinations in LN229 and VTC-001 cells. (FIG. 34E) Caspase 3/7 activity in VTC-103 and VTC-001 cells. The activity of cleaved caspase 3/7 (active) was determined using a luminescence assay. Shown are luminescence readings. (FIG. 34F) EOB scores of drug combinations in VTC-103 and VTC-001 cells. […] SF295 cells were subcutaneously injected into immuno-deficient mice. […] Tumor volumes are shown. […] Cell viability was determined using the MTS viability assay. Percentages of cell viability were obtained by normalizing the MTS readings of treatment groups to that of shNS group. […]
Cell viability was determined by the MTS cell viability assay (Promega) as described previously 21,24-27. […] At each hour time point, the absorbance at 490 nm was measured using a FilterMax F3 microplate reader (Molecular Devices, LLC) according to the manufacturer's instructions. Percent cell viability was obtained by dividing the absorbance of treatment groups to those of untreated and respective vehicle control groups.

AKT = AKT activation in GBM cells; type: cell-based
SF295 cells [3] = assay: wound-healing (migration) assay; type: cell-based; settings: 8 μM, 24 hours
Procedure: (§6) (FIG. 8A) Wound-healing assay. Cells were plated confluently and then treated with PI3K isoform-selective inhibitors at 8 μM for 24 hours. Cells were imaged at 0- and 24-hour time point. Images of 24-hour time point are shown. Scale bar: […]. (FIG. 8B-8D) Quantification of migration distance. Images from three different areas were analyzed using Image J. Migration distances were obtained by subtracting 24-hour measurements with those of 0-hour.

LN229/GSCs [4] = assay: wound-healing (migration) assay; type: cell-based; settings: 8 μM, 24 hours
Procedure: as §6

LN229/GSCs [5] = assay: TMZ sensitivity of LN229/GSCs; type: cell-based; settings: Homo sapiens, LN-229
[6] = 200 μM, 4 days, fresh peptide every day

Compound: RQPKIWFPNRRKPWKKTKKSTKTINPSKYQTIRK [Ante-Selectide-18]
- MTOR (PI3K/AKT downstream target) [1, 6]: not inhibited
- active forms of GSK3b and RAC1/CDC42 [1, 6]: remarkable decrease
- levels of phosphorylated form of AKT [1, 6]: substantially reduced
- activity of PI3K subunit p110γ (p110γ): does not affect
- activity of PI3K subunit p110c (p110c): does not affect
- activity of PI3K subunit p110δ (p110δ): does not affect
- activity of p110b (p110b): inhibits the activity
- activity of p110b (p110b; listed as ante-Selectide-18): Only Inhibits p110b
- IC50 (p110b; increasing doses): 0.105 µM

Compound: Cc1c(Cn2c(C)nc3c(C(=O)O)cc(N4CCOCC4)cc32)cccc1C(F)(F)F [GSK2636771]
- tumor growth in mice (tumor growth in mice): slow down tumor growth

Compound: Cc1cc([C@@H](C)Nc2ccccc2C(=O)O)c2nc(N3CCOCC3)cc(=O)n2c1 [AZD6482]
- sensitivity to AZD6482 (MDA-MB-435S cells): not sensitive and not
- cytotoxicity (p110β^hyper cells; CellTiter Blue): cytotoxic
- PI3K activity (PI3K in SK-MEL-94 cells): inactivated PI3K
- PI3K activity (PI3K in SK-MEL-147 cells): not

Compound: scramble peptide: control C2Scramble peptide, e.g. TYKTSKRISKQTIKKPNT fused with RRRRRRRR (IYKTSKTRSQKTKIKPNT)
- AKT activity [1]: not
- cell viability (SF295 cells [2]): not

Compound: Cc1ccc([N+](=O)[O-])cc1S(=O)(=O)N(C)/N=C/c1cnc2ccc(Br)cn12 [PIK-75]
- AKT activation / selectivity (AKT): non-selectively inhibits AKT and ERK

Compound: CC(C)(C)NS(=O)(=O)c1cncc(-c2cc(F)c3nc(N)nn3c2)c1 [CZC24832]
- selective inhibition of cell viability (p110β^hyper cells): did not show a selective inhibition of cell viability

Compound: IYKTSKTRSQKTKIKPNT (Scrambled control peptide) [scrambled peptide]
- activity of p110b (p110b): didn't inactivate p110β

Compound: RRRRRRRRTKKSTKTINPSKYQTIRK (p110bC2in - Selectide-18 with a cell penetrating peptide) [p110βC2in]
- AKT activity [1]: blocked AKT activity
- cell viability (SF295 cells [2]): suppressed cell viability

Compound: Nc1cc(C(F)(F)F)c(-c2cc(N3CCOCC3)nc(N3CCOCC3)n2)cn1 [BKM120]
- cell migration (SF295 cells [3]): inhibited the migration
- cell migration (LN229/GSCs [4]): inhibited the migration

Compound: Nc1nc2cc(-c3ccc4ncc(C(=O)N5CCOCC5)n4c3)ccc2o1 [MLN1117]
- selective inhibition of cell viability (p110β^hyper cells): did not show a selective inhibition of cell viability

Compound: Cn1nnc2c(C(N)=O)ncn2c1=O [TMZ, temozolomide]
- IC50 (LN229/GSCs [5]): 100 µM
